Activity calls are given as the source filed them.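 Rule for the calls: active = peak hERG inhibition over 30% at some tested dose, together with a fitted dose response curve; inactive = no hERG inhibition at any dose, or no curve fitted.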
Target: Voltage-gated inwardly rectifying potassium channel KCNH2 (Homo sapiens) (UniProt Q12809)
Assay: block of human KCNH2 potassium channel – cell-based, FluxOR thallium flux, concentration-response, set 4, selectivity assay for KCNK9 inhibitor project, SAR follow-up (AID 623883)
Conditions: hERG-expressing cells; for IC50: FluxOR thallium flux fluorescence; for fluorescence ratio, lower = inhibition: at 30 µM (top of the series)

Sequence of Voltage-gated inwardly rectifying potassium channel KCNH2 (Homo sapiens) (Q12809 whole entry, looked up): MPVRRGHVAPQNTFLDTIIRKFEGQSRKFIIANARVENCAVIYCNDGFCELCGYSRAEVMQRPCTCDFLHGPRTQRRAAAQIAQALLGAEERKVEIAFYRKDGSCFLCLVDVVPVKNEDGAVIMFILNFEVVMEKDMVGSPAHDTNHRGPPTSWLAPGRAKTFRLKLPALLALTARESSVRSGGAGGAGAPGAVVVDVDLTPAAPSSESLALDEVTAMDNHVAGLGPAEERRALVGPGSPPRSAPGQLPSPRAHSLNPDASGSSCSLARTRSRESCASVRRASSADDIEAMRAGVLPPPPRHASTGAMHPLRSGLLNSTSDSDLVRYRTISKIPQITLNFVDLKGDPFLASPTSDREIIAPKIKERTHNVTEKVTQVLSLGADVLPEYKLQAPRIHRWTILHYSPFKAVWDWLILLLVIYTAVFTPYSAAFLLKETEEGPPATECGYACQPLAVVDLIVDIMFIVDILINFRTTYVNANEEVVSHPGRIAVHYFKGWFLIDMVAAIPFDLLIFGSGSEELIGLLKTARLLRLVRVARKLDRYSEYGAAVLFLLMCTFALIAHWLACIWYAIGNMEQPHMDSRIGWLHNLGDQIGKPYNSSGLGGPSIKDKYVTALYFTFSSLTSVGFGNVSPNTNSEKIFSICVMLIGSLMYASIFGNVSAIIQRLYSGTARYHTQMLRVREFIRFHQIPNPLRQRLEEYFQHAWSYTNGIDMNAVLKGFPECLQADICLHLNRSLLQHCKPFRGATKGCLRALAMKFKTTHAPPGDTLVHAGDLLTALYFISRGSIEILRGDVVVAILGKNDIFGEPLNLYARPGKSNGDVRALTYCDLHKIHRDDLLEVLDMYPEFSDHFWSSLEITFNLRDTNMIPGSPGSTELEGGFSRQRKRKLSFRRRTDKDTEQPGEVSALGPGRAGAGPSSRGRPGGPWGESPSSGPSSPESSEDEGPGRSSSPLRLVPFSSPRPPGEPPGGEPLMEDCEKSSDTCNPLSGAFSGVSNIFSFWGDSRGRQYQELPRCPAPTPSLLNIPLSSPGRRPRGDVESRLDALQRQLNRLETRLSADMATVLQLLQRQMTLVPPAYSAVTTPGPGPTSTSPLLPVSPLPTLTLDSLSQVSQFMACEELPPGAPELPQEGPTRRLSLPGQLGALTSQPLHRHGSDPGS

COc1cccc(CCSc2nnc(-c3ccco3)n2C(C)C2CC3CCC2C3)c1 (stereo not given)
IC50: 4.52 µM

COc1ccc(NC(=O)CSc2nnc(-c3ccco3)n2C(C)C2CC3CCC2C3)cc1OC (stereo not given)
IC50: 25.8 µM

CC(C1CC2CCC1C2)n1c(SCCc2ccccn2)nnc1-c1ccco1 (stereo not given)
IC50: 12.6 µM

C[C@H]([C@@H]1CC2CC[C@H]1C2)n1c(-c2ccccc2F)n[nH]c1=S
fluorescence ratio, lower = inhibition: inactive

CCCC(=O)C1CCN(c2ncnc3c2CN(C(=O)c2ccc(-c4ccccc4)cc2)CC3)CC1
IC50: 7.68 µM

COc1ccc(C(=O)CCSc2nnc(-c3ccco3)n2C(C)C2CC3CCC2C3)cc1OC (stereo not given)
IC50: 15.8 µM

CC(C1CC2CCC1C2)n1c(SCCc2cccc(O)c2)nnc1-c1ccco1 (stereo not given)
IC50: 8.05 µM

CC(C1CC2CCC1C2)n1c(N)nnc1-c1ccco1 (stereo not given)
fluorescence ratio, lower = inhibition: inactive

C[C@H](C1CCCCC1)n1c(-c2ccsc2)n[nH]c1=S
fluorescence ratio, lower = inhibition: inactive

C[C@@H]([C@@H]1CC2CC[C@H]1C2)n1c(-c2ccsc2)n[nH]c1=S
fluorescence ratio, lower = inhibition: inactive

C[C@H]([C@@H]1CC2CC[C@H]1C2)n1c(-c2ccco2)n[nH]c1=S
fluorescence ratio, lower = inhibition: inactive

CC(C1CCN(C)CC1)n1c(-c2ccco2)n[nH]c1=S (stereo not given)
fluorescence ratio, lower = inhibition: inactive

CC(C1CC2CCC1C2)n1c(SCCN2CCOCC2)nnc1-c1ccco1 (stereo not given)
fluorescence ratio, lower = inhibition: inactive

C[C@H]([C@@H]1CC2CC[C@H]1C2)n1c(-c2ccsc2)n[nH]c1=S
IC50: 0.839 µM
fluorescence ratio, lower = inhibition: inactive

CC(C1CC2CCC1C2)n1c(SCC(=O)N2CCN(C)CC2)nnc1-c1ccco1 (stereo not given)
fluorescence ratio, lower = inhibition: inactive

COc1cccc(-c2nnc(SSc3nnc(-c4cccc(OC)c4)n3C(C)C3CC4CCC3C4)n2C(C)C2CC3CCC2C3)c1 (stereo not given)
IC50: 0.398 µM

CC(C1CC2CCC1C2)n1c(-c2ccco2)nn(CCc2ccncc2)c1=S (stereo not given)
fluorescence ratio, lower = inhibition: inactive

COc1ccc(CSc2nnc(-c3ccco3)n2C(C)C2CC3CCC2C3)cc1OC (stereo not given)
IC50: 18.2 µM

CC(C1C[C@H]2CCC1C2)n1c(-c2ccsc2)n[nH]c1=S (stereo not given in full)
fluorescence ratio, lower = inhibition: inactive

C[C@H](C1CCCCC1)n1c(-c2ccccc2F)n[nH]c1=S
fluorescence ratio, lower = inhibition: inactive

CC([C@@H]1CC2CC[C@H]1C2)n1c(-c2ccsc2)n[nH]c1=S (stereo not given in full)
fluorescence ratio, lower = inhibition: inactive

C[C@@H]([C@@H]1CC2CC[C@H]1C2)n1c(-c2ccco2)n[nH]c1=S
fluorescence ratio, lower = inhibition: inactive

COc1cccc(-c2n[nH]c(=S)n2[C@H](C)C2CCCCC2)c1
fluorescence ratio, lower = inhibition: inactive

COc1cccc(-c2n[nH]c(=S)n2[C@H](C)[C@@H]2CC3CC[C@H]2C3)c1
fluorescence ratio, lower = inhibition: inactive
